From US10517889B2, “Modulators of SMAD7 expression” (Ionis Pharmaceuticals, Inc., priority 2017, dated 2019)
Where “and” joins values, the source holds several entries; their conditions need not be identical. Equal values may be shown once. Strand notation (5' to 3'): a small letter for the sugar, then the base; units joined by * are phosphorothioate-linked, units joined directly phosphodiester-linked; [ ] holds rarer units or linkages, { } end groups; capitals alone tell only the bases. k = constrained ethyl (cEt); [5mC] = 5-methylcytosine; d = 2'-deoxy (DNA)

Key:
human SMAD7 mRNA [1] = assay: Dose-dependent inhibition of human SMAD7 mRNA expression in Hep3B cells (Example 3, Study 1 and 2); type: cell-based; conditions: electroporation; for % inhibition of SMAD7 mRNA expression: approximately 16 hours; for IC50: Study 2 (740-20000 nM)
How it was run: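 Hep3B cells, 20,000 per well, electroporated with antisense oligonucleotide at 0.31, 1.25, 5.00 or 20.00 μM (first series) or 0.74, 2.22, 6.67 or 20.00 μM (second series). After ~16 h, SMAD7 mRNA measured by RT-qPCR (RTS5062), normalised to RIBOGREEN total RNA. Percent inhibition vs untreated cells; IC50 derived.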

human SMAD7 mRNA [2] = assay: Antisense inhibition of human SMAD7 mRNA expression in Hep3B cells by 3-10-3 cEt gapmers, 10,000 nM, electroporation (Example 2); type: cell-based; conditions: approximately 24 hours
How it was run: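 Hep3B, 20,000 cells/well; electroporation, 10,000 nM ASO; ~24 h. Readout: SMAD7 mRNA by qRT-PCR (RTS5062), RIBOGREEN-normalised; % inhibition vs untreated.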

[3] = 740 nM, Study 2, relative to untreated control cells
[4] = Hep3B cells, electroporation with 10,000 nM antisense oligonucleotide, primer probe set RTS5062, relative to untreated control cells
[5] = Hep3B cells, electroporation, 10,000 nM antisense oligonucleotide, RTS5062, relative to untreated control cells
[6] = Hep3B cells, electroporation with 10,000 nM antisense oligonucleotide, RTS5062, percent inhibition of SMAD7 mRNA relative to untreated control cells
[7] = Hep3B cells, electroporation with 10,000 nM antisense oligonucleotide, SMAD7 mRNA by RT-PCR (RTS5062), relative to untreated control cells
[8] = Hep3B cells, 10,000 nM antisense oligonucleotide, electroporation, RT-PCR primer probe set RTS5062, relative to untreated control cells

Row | Substance | % inhibition of SMAD7 mRNA expression (human SMAD7 mRNA [1]; [3]) | % inhibition of SMAD7 mRNA expression (human SMAD7 mRNA [1]; 2220 nM, Study 2) | % inhibition of SMAD7 mRNA expression (human SMAD7 mRNA [1]; 6670.0 nM, Study 2) | % inhibition of SMAD7 mRNA expression (human SMAD7 mRNA [1]; 20000.0 nM, Study 2) | IC50 (human SMAD7 mRNA [1]) | % Inhibition (human SMAD7 mRNA [2]; [4]) | % inhibition of SMAD7 mRNA expression (human SMAD7 mRNA [2]; [5]) | % Inhibition (human SMAD7 mRNA [2]; [6]) | % Inhibition (human SMAD7 mRNA [2]; [7]) | % inhibition of SMAD7 mRNA expression (human SMAD7 mRNA [2]; [4]) | % Inhibition (human SMAD7 mRNA [2]; [8]) | % Inhibition (human SMAD7 mRNA [2]; SMAD7 mRNA, Hep3B cells, electroporation with 10,000 nM antisense oligonucleotide, primer probe set RTS5062, relative to untreated control cells) | % Inhibition (human SMAD7 mRNA [2]; SMAD7 mRNA, Hep3B cells, 10,000 nM antisense oligonucleotide, electroporation, primer probe set RTS5062, relative to untreated control cells)
1 | 798954 (antisense kA*kT*kA*dA*dG*d[5mC]*dT*dA*dT*dT*dT*d[5mC]*dT*k[5mC]*kA*kA) [compound 798954] | 4% | 27% | 49% | 70% | > 20 µM | 54% |  |  |  |  |  |  | 
2 | 799577 (kT*kT*k[5mC]*d[5mC]*dG*dA*dA*dA*dG*dG*dA*d[5mC]*d[5mC]*k[5mC]*kT*kT; antisense) [compound 799577] | 35% | 64% | 75% | 86% | 2 µM |  | 55% |  |  |  |  |  | 
3 | 799808 (antisense kG*k[5mC]*kT*dG*dA*dA*dA*dG*dA*dA*dA*dG*dT*k[5mC]*k[5mC]*k[5mC]) [compound 799808] | 8% | 33% | 52% | 73% | 10 µM |  |  | 70% |  |  |  |  | 
4 | 830137 (antisense kA*kT*kG*dA*dA*dA*dG*dT*dA*d[5mC]*dA*dA*dT*k[5mC]*kT*k[5mC]) [compound 830137] | 19% | 46% | 63% | 84% | 3 µM |  |  |  | 68% |  |  |  | 
5 | 799382 (antisense kA*k[5mC]*kT*dT*dT*dT*dA*dG*d[5mC]*dA*dA*dA*d[5mC]*kA*kG*kA) [compound 799382] | 0% | 36% | 56% | 75% | 3 µM |  |  |  |  | 82% |  |  | 
6 | 799118 (antisense kA*kG*kA*dG*d[5mC]*dT*dT*dA*dA*d[5mC]*dA*d[5mC]*dA*k[5mC]*kA*kG) [compound 799118] | 0% | 16% | 50% | 75% | < 0.7 µM | 71% |  |  |  |  |  |  | 
7 | 799369 (antisense kA*k[5mC]*kT*d[5mC]*dA*d[5mC]*dT*dA*dA*dG*dT*d[5mC]*dT*k[5mC]*k[5mC]*kG) [compound 799369] | 1% | 10% | 46% | 74% | 6 µM |  |  |  | 50% |  |  |  | 
8 | 799663 (antisense kG*k[5mC]*kA*d[5mC]*dA*dG*d[5mC]*d[5mC]*dA*dA*dG*dA*dG*kA*kT*kG) [compound 799663] | 19% | 43% | 61% | 89% | > 20 µM |  |  | 57% |  |  |  |  | 
9 | 798824 (kG*kA*k[5mC]*dA*d[5mC]*dA*dG*dT*dA*dG*dA*dG*d[5mC]*k[5mC]*kT*k[5mC]; antisense) [compound 798824] | 0% | 0% | 7% | 42% | 4 µM |  |  |  |  |  | 74% |  | 
10 | 799722 (antisense kG*k[5mC]*kA*dG*dA*dG*dT*dG*dA*dG*dA*dA*d[5mC]*kA*kA*kG) [compound 799722] | 17% | 38% | 53% | 82% | 5 µM |  |  | 67% |  |  |  |  | 
11 | 830168 (antisense kA*kT*kG*d[5mC]*dT*dT*dT*dT*dA*d[5mC]*dA*d[5mC]*dA*k[5mC]*k[5mC]*k[5mC]) [compound 830168] | 31% | 46% | 65% | 73% | 3 µM |  |  |  | 81% |  |  |  | 
12 | 799565 (kA*kG*kT*dA*dA*dA*d[5mC]*dA*dA*dT*dA*d[5mC]*d[5mC]*k[5mC]*kT*k[5mC]; antisense) [compound 799565] | 23% | 49% | 67% | 86% | 11 µM |  |  | 79% |  |  |  |  | 
13 | 799543 (kT*k[5mC]*kA*dA*dA*dT*dG*d[5mC]*dA*dT*dG*dA*dG*kT*kT*kA; antisense) [compound 799543] | 13% | 26% | 61% | 75% | 5 µM |  | 65% |  |  |  |  |  | 
14 | 800010 (kG*kT*kT*dA*dT*dT*dT*dA*dA*dT*dT*dA*d[5mC]*k[5mC]*k[5mC]*kT; antisense) [compound 800010] | 33% | 13% | 47% | 59% | 6 µM |  |  |  |  |  | 69% |  | 
15 | 798696 (antisense kT*k[5mC]*k[5mC]*d[5mC]*d[5mC]*d[5mC]*dT*dG*d[5mC]*dG*d[5mC]*d[5mC]*d[5mC]*kT*k[5mC]*k[5mC]) [compound 798696] | 0% | 33% | 58% | 66% | < 0.7 µM |  |  |  | 82% |  |  |  | 
16 | 829980 (kT*kT*kG*dA*dT*dA*dT*dT*dT*dA*dG*d[5mC]*dT*kG*kT*k[5mC]; antisense) [compound 829980] | 52% | 63% | 79% | 92% | 3 µM |  |  |  |  |  |  | 56% | 
17 | 799404 (antisense kG*kG*kA*dA*d[5mC]*dA*dT*dT*dT*dA*d[5mC]*d[5mC]*d[5mC]*k[5mC]*kT*kG) [compound 799404] | 15% | 39% | 42% | 59% | 2 µM |  |  |  |  | 68% |  |  | 
18 | 799671 (antisense kA*kG*kG*dT*dA*dT*dT*dT*dT*dT*dG*dA*dA*kG*kG*k[5mC]) [compound 799671] | 22% | 56% | 71% | 74% | 2 µM |  |  | 59% |  |  |  |  | 
19 | 830142 (antisense kT*kG*kT*dG*d[5mC]*dA*d[5mC]*d[5mC]*dA*dG*dG*dT*dG*kA*kG*k[5mC]) [compound 830142] | 13% | 37% | 32% | 49% | > 20 µM |  |  |  | 60% |  |  |  | 
20 | 799566 (kG*kA*kG*dT*dA*dA*dA*d[5mC]*dA*dA*dT*dA*d[5mC]*k[5mC]*k[5mC]*kT; antisense) [compound 799566] | 0% and 10% | 32% and 64% | 63% and 82% |  | 2 µM and 1 µM |  |  | 74% |  |  |  |  | 89%
21 | 799366 (antisense kT*k[5mC]*kT*d[5mC]*d[5mC]*dG*dA*dG*dT*dT*dA*dT*d[5mC]*k[5mC]*k[5mC]*k[5mC]) [compound 799366] | 18% | 39% | 64% | 76% | 8 µM |  |  |  |  | 70% |  |  | 
22 | 799781 (kG*kT*k[5mC]*dA*dA*dT*dA*d[5mC]*dA*dT*dA*dT*dT*kT*kG*k[5mC]; antisense) [compound 799781] | 23% | 75% | 72% | 92% | > 20 µM |  |  | 66% |  |  |  |  | 
23 | 799509 (antisense kA*kG*kA*dA*dA*d[5mC]*dA*dG*dT*d[5mC]*dT*d[5mC]*d[5mC]*kA*k[5mC]*kA) [compound 799509] | 21% | 54% | 69% | 87% | 12 µM |  |  |  | 57% |  |  |  | 
